# In patent US20120065066A1, “NOVEL HERBICIDES” (SYNGENTA CROP PROTECTION LLC, priority 2009, published 2012):
# Columns and labels:
# Type in all cases: in vivo
# Conditions in all cases: 312 h, evaluated after 13 days, 100=total damage to plant, 0=no damage to plant
# Avena fatua (AVEFA) [1] = test: Test Example B, pre-emergence herbicidal test
# Procedure: (§1) Seeds of a variety of test species were sown in standard soil in pots. After cultivation for one day (pre-emergence) or after 8 days cultivation (post-emergence) under controlled conditions in a glasshouse (at 24/16° C., day/night; 14 hours light; 65% humidity), the plants were sprayed with an aqueous spray solution derived from the formulation of the technical active ingredient in acetone/water (50:50) solution containing 0.5% Tween 20 (polyoxyethelyene sorbitan monolaurate, CAS RN 9005-64-5). The test plants were then grown in a glasshouse under controlled conditions in a glasshouse (at 24/16° C., day/night; 14 hours light; 65% humidity) and watered twice daily. After 13 days for pre and post-emergence, the test was evaluated (100=total damage to plant; 0=no damage to plant). Test Plants: Setaria faberi (SETFA), Alopecurus myosuroides (ALOMY), Echinochloa crus-galli (ECHCG), and Avena fatua (AVEFA).
# [2] = system: Alopecurus myosuroides (ALOMY); test: Test Example B, pre-emergence herbicidal test
# Procedure: as §1
# [3] = system: Echinochloa crus-galli (ECHCG); test: Test Example B, pre-emergence herbicidal test
# Procedure: as §1
# Avena fatua (AVEFA) [4] = test: Test Example B, post-emergence herbicidal test
# Procedure: as §1
# [5] = system: Alopecurus myosuroides (ALOMY); test: Test Example B, post-emergence herbicidal test
# Procedure: as §1
# [6] = system: Echinochloa crus-galli (ECHCG); test: Test Example B, post-emergence herbicidal test
# Procedure: as §1
Compound,pest or weed control at 250 g/ha (Avena fatua (AVEFA) [1]),pest or weed control at 250 g/ha [2],pest or weed control at 250 g/ha [3],pest or weed control at 250 g/ha (Avena fatua (AVEFA) [4]),pest or weed control at 250 g/ha [5],pest or weed control at 250 g/ha [6]
CCc1ccc(-c2ccc(Cl)cc2Cl)cc1C1=C(O)[C@H]2[C@H]3CC[C@H](C3)[C@H]2C1=O [Compound T29],90%,30%,100%,0%,30%,100%
CCc1ccc(-c2c(F)cc(Cl)cc2Cl)cc1C1=C(O)[C@H]2[C@H]3CC[C@H](CC3)[C@H]2C1=O [Compound T42],0%,0%,0%,40%,0%,80%
CCc1ccc(-c2ccc(Cl)c(Cl)c2)cc1C1=C(O)[C@H]2[C@H]3CC[C@H](CC3)[C@H]2C1=O [Compound T13],0%,20%,90%,60%,60%,100%
"CCc1ccc(-c2ccc(Cl)cc2)cc1C1=C(O)[C@H]2[C@H]3CC[C@H](C3)[C@H]2C1=O (racemic) [Compound T1, rac-(3aR,4R,7S,7aS)-2-(4′-chloro-4-ethylbiphenyl-3-yl)hexahydro-4,7-methanoindene-1,3-dione]",100%,70%,100%,100%,90%,100%
CCc1ccc(-c2ccc(Cl)c(C(F)(F)F)c2)cc1C1=C(O)[C@H]2[C@H]3CC[C@H](C3)[C@H]2C1=O [Compound T33],30%,20%,100%,70%,70%,90%
CCc1ccc(-c2ccc(Cl)c(F)c2F)cc1C1=C(O)[C@H]2[C@H]3CC[C@H](C3)[C@H]2C1=O [Compound T40],60%,50%,100%,90%,90%,100%
CCc1ccc(-c2ccc(Cl)nc2)cc1C1=C(O)[C@H]2[C@H]3CC[C@H](C3)[C@H]2C1=O [Compound T36],40%,30%,80%,20%,0%,50%
CCc1ccc(-c2ccc(Cl)c(Cl)c2F)cc1C1=C(O)[C@H]2[C@H]3CC[C@H](C3)[C@H]2C1=O [Compound T41],0%,0%,50%,60%,0%,90%
"CCc1ccc(-c2ccc(Cl)cc2F)cc1C1=C(O)[C@H]2[C@H]3CC[C@H](CC3)[C@H]2C1=O (racemic) [Compound T10, rac-(3aR,7aS)-2-(4′-chloro-4-ethyl-2′-fluorobiphenyl-3-yl)hexahydro-4,7-ethanoindene-1,3-dione]",0%,0%,90%,0%,0%,90%
CCc1ccc(-c2ccc(Cl)c(F)c2Cl)cc1C1=C(O)[C@H]2[C@H]3CC[C@H](CC3)[C@H]2C1=O [Compound T43],20%,0%,40%,30%,70%,100%
CCc1ccc(-c2ccc(Cl)s2)cc1C1=C(O)[C@H]2[C@H]3CC[C@H](CC3)[C@H]2C1=O [Compound T17],90%,80%,100%,50%,40%,90%
"CCc1ccc(-c2ccc(Cl)cc2F)cc1C1=C(O)[C@H]2[C@H]3CC[C@H](C3)[C@H]2C1=O (racemic) [Compound T28, rac-(3aR,4R,7S,7aS)-2-(4′-chloro-4-ethyl-2′-fluorobiphenyl-3-yl)-hexahydro-4,7-methanoindene-1,3-dione]",90%,60%,100%,10%,30%,90%
CCc1ccc(-c2ccc(Cl)cc2C)cc1C1=C(O)[C@H]2[C@H]3CC[C@H](C3)[C@H]2C1=O [Compound T30],30%,40%,100%,0%,0%,90%
CCc1ccc(-c2ccc(Cl)c(F)c2Cl)cc1C1=C(O)[C@H]2[C@H]3CC[C@H](C3)[C@H]2C1=O [Compound T39],70%,40%,100%,50%,70%,100%
CCc1ccc(-c2ccc(Cl)c(F)c2)cc1C1=C(O)[C@H]2[C@H]3CC[C@H](CC3)[C@H]2C1=O [Compound T18],50%,50%,90%,100%,100%,100%
Cc1ccc(-c2ccc(Cl)cc2)cc1C1=C(O)[C@H]2[C@H]3CC[C@H](C3)[C@H]2C1=O [Compound T2],80%,30%,100%,60%,40%,100%
CCc1ccc(-c2ccc(Cl)c(Cl)c2)cc1C1=C(O)[C@H]2[C@H]3CC[C@H](C3)[C@H]2C1=O [Compound T31],70%,20%,80%,70%,60%,100%
"CCc1ccc(-c2ccc(Cl)cc2)cc1C1=C(O)[C@@H]2[C@H](C1=O)[C@@H]1C=C[C@H]2CC1 (racemic) [Compound T6, rac-(3aR,4S,7R,7aS)-2-(4′-chloro-4-ethylbiphenyl-3-yl)-3a,4,7,7a-tetrahydro-4,7-ethanoindene-1,3-dione]",40%,60%,100%,60%,70%,100%
CCc1ccc(-c2ccc(Cl)nc2Cl)cc1C1=C(O)[C@H]2[C@H]3CC[C@H](C3)[C@H]2C1=O [Compound T37],70%,50%,90%,0%,70%,90%
Cc1ccc(-c2ccc(Cl)cc2)cc1C1=C(O)[C@H]2[C@H]3CC[C@H](CC3)[C@H]2C1=O [Compound T4],70%,50%,100%,80%,70%,100%
CCc1ccc(-c2ccc(Cl)cc2Cl)cc1C1=C(O)[C@H]2[C@H]3CC[C@H](CC3)[C@H]2C1=O [Compound T11],0%,0%,60%,100%,90%,100%
CCc1ccc(-c2ccc(Cl)s2)cc1C1=C(O)[C@H]2[C@H]3CC[C@H](C3)[C@H]2C1=O [Compound T34],40%,30%,100%,80%,60%,90%
CCc1ccc(-c2c(F)cc(Cl)cc2F)cc1C1=C(O)[C@H]2[C@H]3CC[C@H](CC3)[C@H]2C1=O [Compound T20],100%,100%,100%,100%,100%,100%
